The NIST ThermoML archive (doi:10.1021/je060107n)

Test: mn = molality of the nth substance listed, in mol/kg
Conditions: 101 kPa, Liquid; for mass density: Pycnometric method; for viscosity: Capillary tube (Ostwald / Ubbelohde) method; for speed of sound: Linear variable-path acoustic interferometer

CC(=O)[O-].CC(=O)[O-].[Mg+2] [magnesium acetate] + O
Conditions | mass density [kg/m3] | speed of sound [m/s] | viscosity [mPa·s]
314.7 K, m1 = 1.608 | 1097.8 | – | –
314.75 K, m1 = 2.134 | 1125.2 | – | –
314.85 K, m1 = 2.622 | 1148.5 | – | –
315 K, m1 = 5.165 | 1241.7 | – | –
315.2 K, m1 = 0.1671 | 1003.8 | – | –
315.25 K, m1 = 3.437 | 1186.9 | – | –
315.55 K, m1 = 3.819 | 1198.5 | – | –
315.65 K, m1 = 3.043 | 1166.4 | – | –
315.85 K, m1 = 1.866 | 1110.4 | – | –
316.05 K, m1 = 1.106 | 1068 | – | –
316.05 K, m1 = 6.187 | 1269 | – | –
316.25 K, m1 = 0.0414 | 994.01 | – | –
316.35 K, m1 = 6.545 | 1276.6 | – | –
316.7 K, m1 = 0.646 | 1037.6 | – | –
316.95 K, m1 = 0.0831 | 996.85 | – | –
317.05 K, m1 = 2.622 | 1147.3 | – | –
317.1 K, m1 = 0.4247 | 1021.9 | – | –
317.15 K, m1 = 1.608 | 1096.6 | – | –
317.3 K, m1 = 2.134 | 1124.1 | – | –
317.3 K, m1 = 5.732 | 1255.6 | – | –
317.7 K, m1 = 3.819 | 1197.2 | – | –
317.9 K, m1 = 6.187 | 1267.7 | – | –
318 K, m1 = 4.547 | 1220.8 | – | –
318.15 K, m1 = 0.0414 | – | 1539.3 | 0.6244
318.15 K, m1 = 0.0831 | – | 1546 | 0.6418
318.15 K, m1 = 0.1671 | – | 1552.2 | 0.6857
318.15 K, m1 = 0.4247 | – | 1587.9 | 0.8341
318.15 K, m1 = 0.646 | – | 1613.4 | 0.9967
318.15 K, m1 = 0.8751 | – | 1638.1 | 1.163
318.15 K, m1 = 1.106 | – | 1661.5 | 1.405
318.15 K, m1 = 1.354 | – | 1683.6 | 1.679
318.15 K, m1 = 1.608 | – | 1705.8 | 1.679
318.15 K, m1 = 1.866 | – | 1727.8 | 2.437
318.15 K, m1 = 2.134 | – | 1749.8 | 2.967
318.15 K, m1 = 2.411 | – | 1773.8 | 3.777
318.15 K, m1 = 2.622 | – | 1782.8 | 4.254
318.15 K, m1 = 3.043 | – | 1808.1 | 5.774
318.15 K, m1 = 3.437 | – | 1832 | 8.453
318.15 K, m1 = 3.819 | – | 1846.6 | –
318.15 K, m1 = 4.001 | – | – | 12.63
318.15 K, m1 = 4.547 | – | 1868.1 | –
318.15 K, m1 = 4.563 | – | – | 19.6
318.15 K, m1 = 4.929 | – | – | 24.03
318.15 K, m1 = 5.165 | – | 1882.7 | –
318.15 K, m1 = 5.41 | – | – | 41.38
318.15 K, m1 = 5.732 | – | 1888.5 | 53.77
318.15 K, m1 = 6.187 | – | – | 87.61
318.2 K, m1 = 1.866 | 1109.3 | – | –
318.25 K, m1 = 6.545 | 1275.3 | – | –
318.5 K, m1 = 0.0414 | 992.99 | – | –
318.6 K, m1 = 1.327 | 1079.4 | – | –
318.6 K, m1 = 2.411 | 1138.3 | – | –
318.85 K, m1 = 5.165 | 1239 | – | –
319.1 K, m1 = 1.354 | 1080.6 | – | –
319.15 K, m1 = 0.646 | 1036.5 | – | –
319.25 K, m1 = 2.622 | 1146.1 | – | –
319.35 K, m1 = 0.8751 | 1050.8 | – | –
319.4 K, m1 = 0.0831 | 995.82 | – | –
319.5 K, m1 = 1.608 | 1095.5 | – | –
319.5 K, m1 = 2.134 | 1122.8 | – | –
319.65 K, m1 = 3.437 | 1184.4 | – | –
319.95 K, m1 = 3.043 | 1164.1 | – | –
319.95 K, m1 = 4.547 | 1219.5 | – | –
319.95 K, m1 = 6.545 | 1273.9 | – | –
320 K, m1 = 0.1671 | 1001.7 | – | –
320.85 K, m1 = 0.0414 | 991.94 | – | –
320.85 K, m1 = 5.732 | 1253 | – | –
320.95 K, m1 = 1.106 | 1065.8 | – | –
321.4 K, m1 = 0.646 | 1035.4 | – | –
321.55 K, m1 = 6.187 | 1265.1 | – | –
321.7 K, m1 = 3.819 | 1194.7 | – | –
321.8 K, m1 = 6.545 | 1272.5 | – | –
322.15 K, m1 = 0.4247 | 1019.9 | – | –
322.15 K, m1 = 3.043 | 1162.9 | – | –
322.3 K, m1 = 0.1671 | 1000.8 | – | –
322.45 K, m1 = 5.165 | 1236.5 | – | –
322.85 K, m1 = 1.866 | 1107.1 | – | –
323.05 K, m1 = 1.106 | 1064.8 | – | –
323.05 K, m1 = 1.327 | 1077.2 | – | –
323.05 K, m1 = 2.411 | 1135.8 | – | –
323.15 K, m1 = 0.0414 | 990.94 | 1544.5 | 0.5741
323.15 K, m1 = 0.0831 | – | 1549.2 | 0.5893
323.15 K, m1 = 0.1671 | – | 1557.7 | 0.6282
323.15 K, m1 = 0.4247 | – | 1591.1 | 0.7596
323.15 K, m1 = 0.646 | – | 1615.2 | 0.9059
323.15 K, m1 = 0.8751 | – | 1637.7 | 1.052
323.15 K, m1 = 1.106 | – | 1662.2 | 1.271
323.15 K, m1 = 1.354 | – | 1683.9 | 1.503
323.15 K, m1 = 1.608 | – | 1703.7 | 1.503
323.15 K, m1 = 1.866 | – | 1725 | 2.166
323.15 K, m1 = 2.134 | – | 1746.5 | 2.61
323.15 K, m1 = 2.411 | – | 1767.3 | 3.295
323.15 K, m1 = 2.622 | – | 1778.6 | 3.695
323.15 K, m1 = 3.043 | – | 1800.3 | 4.961
323.15 K, m1 = 3.437 | – | 1825 | 7.136
323.15 K, m1 = 3.819 | – | 1837.4 | –
323.15 K, m1 = 4.001 | – | – | 10.52
323.15 K, m1 = 4.547 | – | 1857.2 | –
323.15 K, m1 = 4.563 | – | – | 15.97
323.15 K, m1 = 4.929 | – | – | 19.29
323.15 K, m1 = 5.165 | – | 1871 | –
323.15 K, m1 = 5.41 | – | – | 32.16
323.15 K, m1 = 5.732 | – | 1874.6 | 41.44
323.15 K, m1 = 6.187 | – | – | 65.72
323.45 K, m1 = 6.545 | 1271.3 | – | –
323.5 K, m1 = 2.622 | 1143.8 | – | –
323.65 K, m1 = 1.354 | 1078.3 | – | –
323.75 K, m1 = 0.646 | 1034.3 | – | –
323.75 K, m1 = 3.437 | 1181.9 | – | –
323.75 K, m1 = 4.547 | 1217.1 | – | –
323.95 K, m1 = 0.8751 | 1048.7 | – | –
323.95 K, m1 = 2.134 | 1120.5 | – | –
324.05 K, m1 = 1.608 | 1093.3 | – | –
324.1 K, m1 = 0.0831 | 993.76 | – | –
324.25 K, m1 = 0.4247 | 1018.8 | – | –
324.25 K, m1 = 5.165 | 1235.2 | – | –
324.55 K, m1 = 5.732 | 1250.4 | – | –
325.15 K, m1 = 6.187 | 1262.4 | – | –
325.25 K, m1 = 6.545 | 1269.9 | – | –
325.75 K, m1 = 3.819 | 1192.2 | – | –
328.55 K, m1 = 6.187 | 1259.8 | – | –
